Reference: US20050239767A1, “Intermolecular SNAr of the heterocycle-activated nitro and fluoro groups-application in the synthesis of polyazamacrocyclic ligands” (priority 2003, published 2005)

Key:
HIV-1 = experiment: NCI in vitro anti-HIV drug screening test (protection of T4 lymphocytes from HIV cytolysis, XTT readout); format: cell-based; conditions: T4 lymphocytes (CEM cell line) infected with HIV-1, 6 days, XTT formazan; numerical EC50/IC50/TI only in FIGS. 1-4
Protocol: The procedure used in the NCI's test for agents active against HIV is designed to detect agents acting at any stage of the virus reproductive cycle. The assay basically involves the killing of T4 lymphocytes by HIV. Small amounts of HIV are added to cells, and two cycles of virus reproduction are necessary to obtain the required cell killing. Agents that interact with virions, cells, or virus gene-products to interfere with vital activities will protect cells from cytolysis. All tests are done with at least one positive (e.g., AZT-treated) control done at the same time under identical conditions. The procedure is as follows:
Candidate agent was dissolved in dimethyl sulfoxide then diluted 1:100 in cell culture medium before preparing serial half-log10 dilutions. […]
Individual wells were analyzed spectrophotometrically to quantitate formazan production, and in addition were viewed microscopically for detection of viable cells and confirmation of protective activity. […]
The figures display a plot of the log10 of the sample's concentrations (as μg/mL or M) against the measured test values expressed as a percentage of the uninfected, untreated control values. […] The percent protection has been calculated from the data and is presented on the left side of the graph. […]

melting point [°C] | SMILES | activity against HIV (HIV-1)
168 to 169 | Cc1ccc(S(=O)(=O)OCC2Cn3c(nc4c(C)cccc43)-c3cccc(Cl)c3O2)cc1 (centres unmarked) | –
142 to 143.5 | OCC1Cn2c(nc3ccccc32)-c2ccccc2O1 (centres unmarked) | –
149 to 150 | CC(C)(C)C1Cn2c(nc3ccccc32)-c2ccccc2O1 (centres unmarked) | –
165.5 to 166.5 | Cc1ccc(S(=O)(=O)OCC2Cn3c(nc4ccccc43)-c3ccccc3O2)cc1 (centres unmarked) | –
200 to 201 | CC(C)(C)C1Cn2c(nc3c(C4OCCO4)cccc32)-c2ccccc2O1 (centres unmarked) | –

The remaining lines, values behind:

SMILES | melting point [°C] | activity against HIV (HIV-1)
Cc1cccc2c1nc1n2CC(CO)Oc2c(Cl)cccc2-1 (centres unmarked) | 186.5 to 188 | –
C[C@H]1Cn2c(nc3c(C4OCCO4)cccc32)-c2c(cccc2[N+](=O)[O-])O1 | – | confirmed active
Cc1cccc2c1nc1n2CC(C(C)(C)C)Oc2c(Cl)cccc2-1 (centres unmarked) | 191 to 192 | –
